Drawing on patent publication US20230105701A1, “DISSOLUTION-ENHANCED OLAPARIB COMPOSITION” (SHANGHAI INSTITUTE OF MATERIA MEDICA, CHINESE ACADEMY OF …, priority 2020, published 2023), this text covers solubility and permeability for 1 compound.

One may read the solubility as the dissolved amount per volume that the medium holds.

The conditions of series [1]: within the physiological pH range; cited from earlier work.
A short description of series [2]: Solubility test (supersaturated solubility by HPLC). The format is physicochemical. The following applies: pH 4.0 citric acid/disodium hydrogen phosphate buffer, aqueous buffer, thermodynamic from solid, pH 4.0 citrate buffer, 37° C., shaker 100 rpm, equivalent to 10 mg olaparib in 5 ml, average of 2 runs. The protocol:
The dissolution-enhanced olaparib compositions prepared in Preparation Examples 1-3 and Comparative Examples 1-8 and the olaparib API (free base) were taken in an amount equivalent to 10 mg of olaparib, dispersed in 5 ml of a pH 4.0 buffer (citric acid: 21 g/L: disodium hydrogen phosphate 71.63 g/L=61.45:38.55) as the solvent and shaken in a shaker at 100 rpm for 2 h at 37° C., and sampled. The samples were centrifugal filtered and measured by HPLC to determine the supersaturated solubility. The average value was obtained from 2 parallel runs.
The operation conditions of the HPLC were:
Apparatus: A liquid chromatograph with a UV detector;
Chromatographic Waters Sunfire C18, 4.6 mm*50 mm
Eluent: A: 0.1% TFA in water; B: 0.1% TFA in acetonitrile;

For series [3] the following is noted: cited from earlier work.

`O=C(c1cc(Cc2n[nH]c(=O)c3ccccc23)ccc1F)N1CCN(C(=O)C2CC2)CC1` [Olaparib API, 1-(cyclopropanoyl)-4-[5-[(3,4-dihydro-4-oxo-1-phthalazinyl)methyl]-2-fluorobenzoyl]piperazine]: the solubility entry in series [1] is listed as “less than 0.2 mg/ml”. Further, in series [2], the solubility at 2 h worked out at 118 µg/mL. For the same compound, the permeability entry in series [3] is given as “medium”.
